Assay [1] concerns the target T1, Thromboxane A2 receptor (Homo sapiens, UniProt P21731).
T1 sequence (P21731 whole entry): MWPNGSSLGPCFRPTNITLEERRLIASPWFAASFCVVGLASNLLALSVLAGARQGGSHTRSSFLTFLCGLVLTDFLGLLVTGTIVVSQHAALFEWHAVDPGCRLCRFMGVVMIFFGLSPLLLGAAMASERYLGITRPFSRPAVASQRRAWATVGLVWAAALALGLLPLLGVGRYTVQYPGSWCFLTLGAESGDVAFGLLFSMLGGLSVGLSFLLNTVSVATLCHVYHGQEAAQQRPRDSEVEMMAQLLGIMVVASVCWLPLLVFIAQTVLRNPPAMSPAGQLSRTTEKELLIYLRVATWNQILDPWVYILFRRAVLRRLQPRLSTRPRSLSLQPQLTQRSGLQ

Assay [2] concerns the target T2, Estrogen receptor (Homo sapiens, UniProt P03372).
T2 sequence (P03372 whole entry): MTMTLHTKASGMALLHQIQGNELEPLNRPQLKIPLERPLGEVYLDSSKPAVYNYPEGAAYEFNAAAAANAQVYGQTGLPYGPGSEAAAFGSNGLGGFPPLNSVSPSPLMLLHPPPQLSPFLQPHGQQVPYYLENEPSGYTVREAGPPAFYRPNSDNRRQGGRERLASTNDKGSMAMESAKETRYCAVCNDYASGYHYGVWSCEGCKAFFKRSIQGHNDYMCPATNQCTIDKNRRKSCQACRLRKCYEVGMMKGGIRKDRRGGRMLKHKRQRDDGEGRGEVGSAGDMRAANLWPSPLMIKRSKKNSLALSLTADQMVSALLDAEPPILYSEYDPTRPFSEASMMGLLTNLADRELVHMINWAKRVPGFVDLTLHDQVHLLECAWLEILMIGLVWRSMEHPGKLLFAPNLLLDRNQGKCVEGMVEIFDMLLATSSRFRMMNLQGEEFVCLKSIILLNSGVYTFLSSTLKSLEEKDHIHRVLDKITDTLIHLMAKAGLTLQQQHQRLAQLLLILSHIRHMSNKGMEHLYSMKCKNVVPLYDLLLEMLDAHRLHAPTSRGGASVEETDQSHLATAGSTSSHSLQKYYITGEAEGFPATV

The target of assay [3] is Beta-1 adrenergic receptor (Homo sapiens, UniProt P08588). It is filed as functional.
Beta-1 adrenergic receptor, sequence (P08588 whole entry): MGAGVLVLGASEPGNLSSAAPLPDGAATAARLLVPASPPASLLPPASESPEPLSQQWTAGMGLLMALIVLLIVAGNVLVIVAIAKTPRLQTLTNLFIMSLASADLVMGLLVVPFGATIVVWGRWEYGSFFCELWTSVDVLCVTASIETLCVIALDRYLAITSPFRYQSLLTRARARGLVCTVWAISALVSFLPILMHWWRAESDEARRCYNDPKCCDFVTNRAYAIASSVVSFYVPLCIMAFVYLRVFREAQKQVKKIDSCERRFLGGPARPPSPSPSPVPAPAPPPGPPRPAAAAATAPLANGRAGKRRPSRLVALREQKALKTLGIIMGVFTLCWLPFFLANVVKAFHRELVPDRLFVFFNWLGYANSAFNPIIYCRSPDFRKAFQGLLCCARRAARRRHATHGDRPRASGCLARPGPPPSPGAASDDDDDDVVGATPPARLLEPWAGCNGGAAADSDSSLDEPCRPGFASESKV
In assay [4] the target is Beta-2 adrenergic receptor (Homo sapiens, UniProt P07550).
Beta-2 adrenergic receptor, sequence (P07550 whole entry): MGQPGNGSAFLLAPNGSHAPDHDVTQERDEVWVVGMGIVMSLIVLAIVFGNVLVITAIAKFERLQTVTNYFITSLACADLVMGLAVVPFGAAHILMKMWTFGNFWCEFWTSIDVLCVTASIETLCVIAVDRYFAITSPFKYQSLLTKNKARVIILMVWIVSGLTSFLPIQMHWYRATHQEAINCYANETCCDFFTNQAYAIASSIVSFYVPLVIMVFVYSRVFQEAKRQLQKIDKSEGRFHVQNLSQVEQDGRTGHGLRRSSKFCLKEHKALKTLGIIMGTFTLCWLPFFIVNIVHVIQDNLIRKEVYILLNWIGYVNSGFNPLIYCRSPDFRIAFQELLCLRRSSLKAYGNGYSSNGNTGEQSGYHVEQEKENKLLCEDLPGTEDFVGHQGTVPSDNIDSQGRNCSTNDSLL
For assay [5], the target named is Prostaglandin G/H synthase 1 (Homo sapiens, UniProt P23219). Format: functional.
Prostaglandin G/H synthase 1, sequence (P23219 whole entry): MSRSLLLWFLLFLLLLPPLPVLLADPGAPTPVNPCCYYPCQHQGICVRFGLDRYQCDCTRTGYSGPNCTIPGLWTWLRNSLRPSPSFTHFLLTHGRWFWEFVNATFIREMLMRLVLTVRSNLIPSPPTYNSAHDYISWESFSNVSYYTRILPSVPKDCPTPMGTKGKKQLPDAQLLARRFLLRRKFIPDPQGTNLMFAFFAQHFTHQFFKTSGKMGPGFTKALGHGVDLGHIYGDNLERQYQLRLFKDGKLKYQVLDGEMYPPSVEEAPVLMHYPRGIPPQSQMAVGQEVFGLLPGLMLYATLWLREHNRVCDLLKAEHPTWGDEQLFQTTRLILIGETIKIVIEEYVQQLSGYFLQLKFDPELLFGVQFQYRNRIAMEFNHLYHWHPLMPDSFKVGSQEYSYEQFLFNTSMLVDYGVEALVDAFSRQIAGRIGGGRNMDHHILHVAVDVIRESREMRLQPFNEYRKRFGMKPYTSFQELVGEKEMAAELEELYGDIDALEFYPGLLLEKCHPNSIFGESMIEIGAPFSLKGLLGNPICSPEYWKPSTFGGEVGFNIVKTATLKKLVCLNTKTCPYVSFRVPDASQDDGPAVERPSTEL
Assay [6] concerns the target Melanocortin receptor 4 (Homo sapiens, UniProt P32245).
For assay [7], the target named is T3, Alpha-2B adrenergic receptor (Homo sapiens, UniProt P18089).
T3 sequence (P18089 whole entry): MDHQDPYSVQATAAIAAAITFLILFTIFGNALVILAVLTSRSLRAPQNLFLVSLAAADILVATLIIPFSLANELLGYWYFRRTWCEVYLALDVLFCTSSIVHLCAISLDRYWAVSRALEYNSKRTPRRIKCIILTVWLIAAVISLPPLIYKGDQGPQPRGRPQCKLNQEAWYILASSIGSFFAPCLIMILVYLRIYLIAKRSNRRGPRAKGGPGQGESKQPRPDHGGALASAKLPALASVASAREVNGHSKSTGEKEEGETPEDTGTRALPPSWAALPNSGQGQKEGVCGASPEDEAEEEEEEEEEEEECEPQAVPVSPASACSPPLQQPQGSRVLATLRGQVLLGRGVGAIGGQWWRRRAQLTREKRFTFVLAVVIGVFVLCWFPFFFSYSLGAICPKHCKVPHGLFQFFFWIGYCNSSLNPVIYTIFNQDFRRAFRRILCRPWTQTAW

Assay [8] concerns the target Kappa-type opioid receptor (Homo sapiens, UniProt P41145).
For assay [9], the target named is Sodium-dependent serotonin transporter (Homo sapiens, UniProt P31645).
Sodium-dependent serotonin transporter, sequence (P31645 whole entry): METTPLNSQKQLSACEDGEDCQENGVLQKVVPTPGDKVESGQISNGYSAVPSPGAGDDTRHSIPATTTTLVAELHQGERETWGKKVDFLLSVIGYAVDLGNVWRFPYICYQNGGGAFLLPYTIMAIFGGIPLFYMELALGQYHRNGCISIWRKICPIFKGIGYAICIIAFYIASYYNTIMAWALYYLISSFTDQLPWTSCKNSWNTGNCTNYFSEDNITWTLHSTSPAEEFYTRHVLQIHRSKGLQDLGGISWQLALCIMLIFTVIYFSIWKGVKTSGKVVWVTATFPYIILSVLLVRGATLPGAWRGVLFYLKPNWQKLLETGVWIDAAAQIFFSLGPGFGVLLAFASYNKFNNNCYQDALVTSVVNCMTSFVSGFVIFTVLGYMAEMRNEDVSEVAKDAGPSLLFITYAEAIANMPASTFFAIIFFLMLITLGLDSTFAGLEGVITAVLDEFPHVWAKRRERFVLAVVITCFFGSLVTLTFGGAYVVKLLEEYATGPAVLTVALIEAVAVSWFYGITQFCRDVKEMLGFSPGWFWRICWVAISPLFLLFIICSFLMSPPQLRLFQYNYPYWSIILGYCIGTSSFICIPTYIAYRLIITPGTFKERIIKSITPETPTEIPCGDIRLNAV
In assay [10] the target is T2, Estrogen receptor. This is another data set of the same source.
In assay [11] the target is T4, 5-hydroxytryptamine receptor 1A (Homo sapiens, UniProt P08908).
T4 sequence (P08908 whole entry): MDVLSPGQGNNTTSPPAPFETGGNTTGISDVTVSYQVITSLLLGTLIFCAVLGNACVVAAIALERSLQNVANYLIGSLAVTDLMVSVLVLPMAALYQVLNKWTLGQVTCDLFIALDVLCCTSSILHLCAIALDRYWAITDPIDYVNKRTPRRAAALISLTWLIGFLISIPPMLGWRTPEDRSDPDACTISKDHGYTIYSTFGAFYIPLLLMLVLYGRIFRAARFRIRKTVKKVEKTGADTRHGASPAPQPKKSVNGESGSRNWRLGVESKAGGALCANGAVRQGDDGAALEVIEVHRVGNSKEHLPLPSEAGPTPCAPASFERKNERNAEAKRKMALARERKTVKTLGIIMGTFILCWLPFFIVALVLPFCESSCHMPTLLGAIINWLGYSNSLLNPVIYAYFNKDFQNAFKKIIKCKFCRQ
Format: functional, cell-based.

In assay [12] the target is Mu-type opioid receptor (Homo sapiens, UniProt P35372). In words: biochemical. Format: functional.
Mu-type opioid receptor, sequence (P35372 whole entry): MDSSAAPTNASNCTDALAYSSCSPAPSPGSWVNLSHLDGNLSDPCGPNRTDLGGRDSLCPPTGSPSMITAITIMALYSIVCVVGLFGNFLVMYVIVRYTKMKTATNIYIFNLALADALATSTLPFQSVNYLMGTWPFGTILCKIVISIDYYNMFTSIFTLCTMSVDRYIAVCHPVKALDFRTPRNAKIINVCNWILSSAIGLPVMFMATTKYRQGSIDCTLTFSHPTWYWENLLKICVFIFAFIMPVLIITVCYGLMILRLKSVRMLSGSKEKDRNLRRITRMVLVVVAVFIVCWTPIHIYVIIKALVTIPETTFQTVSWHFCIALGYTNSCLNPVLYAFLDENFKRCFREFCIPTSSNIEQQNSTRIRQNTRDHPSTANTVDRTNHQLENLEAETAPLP
Assay [13] concerns the target Histamine H3 receptor (Homo sapiens, UniProt Q9Y5N1).
For assay [14], the target named is T5, Muscarinic acetylcholine receptor M2 (Homo sapiens, UniProt P08172).
T5 sequence (P08172 whole entry): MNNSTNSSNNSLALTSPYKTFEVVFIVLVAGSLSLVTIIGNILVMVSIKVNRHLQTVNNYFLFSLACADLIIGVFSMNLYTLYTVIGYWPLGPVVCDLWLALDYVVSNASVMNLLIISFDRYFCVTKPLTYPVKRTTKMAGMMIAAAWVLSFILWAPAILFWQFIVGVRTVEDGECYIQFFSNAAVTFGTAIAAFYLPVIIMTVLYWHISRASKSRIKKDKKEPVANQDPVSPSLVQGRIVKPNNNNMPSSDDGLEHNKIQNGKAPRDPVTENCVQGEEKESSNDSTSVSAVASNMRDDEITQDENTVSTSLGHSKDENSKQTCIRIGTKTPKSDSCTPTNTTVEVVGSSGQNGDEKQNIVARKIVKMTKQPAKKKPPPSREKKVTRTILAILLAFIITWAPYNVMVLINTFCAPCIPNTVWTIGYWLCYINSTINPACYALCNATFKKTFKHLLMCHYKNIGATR
It is filed as functional, cell-based.

The target of assay [15] is Muscarinic acetylcholine receptor M3 (Homo sapiens, UniProt P20309).
Muscarinic acetylcholine receptor M3, sequence (P20309 whole entry): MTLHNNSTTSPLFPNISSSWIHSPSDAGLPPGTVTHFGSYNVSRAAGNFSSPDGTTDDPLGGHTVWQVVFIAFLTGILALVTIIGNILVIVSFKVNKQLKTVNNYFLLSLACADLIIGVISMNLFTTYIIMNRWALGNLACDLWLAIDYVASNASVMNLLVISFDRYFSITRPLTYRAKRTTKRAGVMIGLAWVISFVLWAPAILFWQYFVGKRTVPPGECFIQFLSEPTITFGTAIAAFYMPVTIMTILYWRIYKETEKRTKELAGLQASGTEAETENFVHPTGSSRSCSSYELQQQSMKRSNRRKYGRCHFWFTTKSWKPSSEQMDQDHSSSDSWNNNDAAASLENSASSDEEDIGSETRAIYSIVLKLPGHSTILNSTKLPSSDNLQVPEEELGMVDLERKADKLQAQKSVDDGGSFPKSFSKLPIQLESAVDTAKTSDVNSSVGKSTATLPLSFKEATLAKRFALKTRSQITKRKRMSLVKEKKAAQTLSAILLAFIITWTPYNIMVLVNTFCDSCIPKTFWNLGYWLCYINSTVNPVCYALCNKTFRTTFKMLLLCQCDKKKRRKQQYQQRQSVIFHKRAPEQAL
Note: assay procedure not described here.

Kappa-type opioid receptor, sequence (P41145 whole entry): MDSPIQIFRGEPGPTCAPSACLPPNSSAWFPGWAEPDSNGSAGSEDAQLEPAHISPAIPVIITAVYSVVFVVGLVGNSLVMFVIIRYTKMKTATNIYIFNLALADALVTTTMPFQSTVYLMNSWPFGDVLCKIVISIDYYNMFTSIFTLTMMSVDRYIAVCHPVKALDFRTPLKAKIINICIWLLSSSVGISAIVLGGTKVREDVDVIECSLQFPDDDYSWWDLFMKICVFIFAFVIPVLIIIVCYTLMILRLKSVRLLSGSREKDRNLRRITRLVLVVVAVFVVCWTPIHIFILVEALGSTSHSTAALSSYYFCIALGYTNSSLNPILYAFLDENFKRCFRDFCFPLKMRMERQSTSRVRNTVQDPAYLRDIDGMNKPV
Melanocortin receptor 4, sequence (P32245 whole entry): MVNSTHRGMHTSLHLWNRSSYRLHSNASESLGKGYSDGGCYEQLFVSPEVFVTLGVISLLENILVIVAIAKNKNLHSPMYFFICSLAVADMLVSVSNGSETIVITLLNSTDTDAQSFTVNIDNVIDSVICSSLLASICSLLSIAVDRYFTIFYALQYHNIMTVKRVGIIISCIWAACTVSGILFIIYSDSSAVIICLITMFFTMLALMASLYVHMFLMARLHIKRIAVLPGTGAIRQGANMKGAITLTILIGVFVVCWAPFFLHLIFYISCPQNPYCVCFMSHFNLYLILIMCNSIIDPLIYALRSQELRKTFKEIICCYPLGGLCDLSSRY
Histamine H3 receptor, sequence (Q9Y5N1 whole entry): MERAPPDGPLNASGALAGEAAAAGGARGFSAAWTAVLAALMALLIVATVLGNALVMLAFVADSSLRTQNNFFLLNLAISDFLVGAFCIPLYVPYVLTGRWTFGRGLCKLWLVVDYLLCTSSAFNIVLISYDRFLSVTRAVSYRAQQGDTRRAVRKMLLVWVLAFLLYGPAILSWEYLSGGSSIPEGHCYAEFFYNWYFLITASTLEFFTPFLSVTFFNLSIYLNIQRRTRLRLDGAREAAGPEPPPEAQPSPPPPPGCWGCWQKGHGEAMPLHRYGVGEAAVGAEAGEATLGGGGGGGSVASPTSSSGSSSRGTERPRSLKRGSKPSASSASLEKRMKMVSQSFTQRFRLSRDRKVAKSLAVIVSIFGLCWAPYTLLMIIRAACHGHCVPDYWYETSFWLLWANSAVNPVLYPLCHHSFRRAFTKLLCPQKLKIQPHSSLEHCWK

Regarding `COc1cc(Nc2c(C#N)cnc3cc(OCCCN4CCN(C)CC4)c(OC)cc23)c(Cl)cc1Cl` [BOSUTINIB], the AC50 in [1] is more than 30 µM; in [2], more than 30 µM; in [3], more than 10 µM; in assay [4], more than 10 µM; in assay [5], more than 30 µM; in assay [6], 17.7 µM. The AC50 was more than 10 µM in assay [7], 10 µM in [8], 3.21 µM in [9] and more than 30 µM in assay [10].

Take `CN(CCOc1ccc(NS(C)(=O)=O)cc1)CCc1ccc(NS(C)(=O)=O)cc1` [DOFETILIDE]: the AC50 in assay [1] was more than 30 µM; in assay [2] it was more than 30 µM; in assay [3] it was more than 10 µM; in [4] it was more than 10 µM; in [5], more than 30 µM; in assay [11], more than 10 µM. Moreover, the AC50 in assay [12] is more than 30 µM; in [13], more than 30 µM; in [6], more than 30 µM; in [14], more than 30 µM; in assay [7], more than 10 µM; in assay [15], more than 10 µM. For the same compound, the values for the AC50 in assay [8], in [9] and in assay [10] were more than 10 µM, more than 30 µM and more than 30 µM, respectively.

On to `COc1cc2c(cc1OC)C(=O)C(CC1CCN(Cc3ccccc3)CC1)C2` (stereo unspecified) [DONEPEZIL], for which the AC50 in [1] was more than 30 µM; in assay [2] it was more than 30 µM; in assay [3], more than 10 µM; in [4] it was more than 10 µM; in [5] it was more than 30 µM; in assay [13] it was 5.2 µM. In addition, the AC50 was more than 30 µM in assay [6]; more than 10 µM in [7]; more than 30 µM in [15]; more than 10 µM in assay [8]; more than 30 µM in assay [9]; more than 30 µM in [10].

As for `OCCN1CCN(CCCN2c3ccccc3C=Cc3ccccc32)CC1` [OPIPRAMOL], the AC50 was more than 30 µM in assay [2]; more than 30 µM in [3]; more than 30 µM in assay [5]; more than 30 µM in assay [11]; 15 µM in assay [12]; 19 µM in [13]. For the same compound, the AC50 is more than 30 µM in [14]; 10 µM in [7]; more than 30 µM in assay [15]; more than 30 µM in assay [8]; 11.7 µM in assay [9]; more than 30 µM in assay [10].

As for `CC(C(=O)O)c1ccc(N2CC=CC2)c(Cl)c1` (stereo unspecified) [PIRPROFEN], the AC50 was more than 30 µM in [1]; more than 30 µM in [2]; more than 10 µM in [3]; more than 10 µM in assay [4]; 0.0325 µM in assay [5]; more than 10 µM in assay [11]. In addition, the AC50 in assay [13] is more than 30 µM; in assay [6] it was more than 30 µM; in assay [14] it was more than 10 µM; in assay [7], more than 10 µM; in [15], more than 10 µM; in [8], more than 10 µM. Moreover, the AC50 in assay [9] and in assay [10] was more than 30 µM throughout.

Take `O=C(NC[C@H]1CN(c2ccc(N3CCOCC3=O)cc2)C(=O)O1)c1ccc(Cl)s1` [RIVAROXABAN]: the AC50 in [5], in assay [13], in assay [14], in assay [7], in [15] and in assay [8] was more than 30 µM throughout. Besides, the AC50 in assay [9] and in [10] was more than 30 µM throughout.

For `Cc1cc2c(cc1CC(=O)c1sccc1S(=O)(=O)Nc1onc(C)c1Cl)OCO2` [SITAXENTAN], the AC50 in [5], in [13], in [9] and in [10] was more than 30 µM each time.

Regarding `CC(C)OC(=O)[C@H](C)N[P@](=O)(OC[C@H]1O[C@@H](n2ccc(=O)[nH]c2=O)[C@](C)(F)[C@@H]1O)Oc1ccccc1` [SOFOSBUVIR], the AC50 in assay [5], in assay [13], in assay [9] and in assay [10] was more than 30 µM in each case.

In the case of `Cc1ccc(O)c2ncccc12` [TILIQUINOL], the AC50 in assay [5], in [13], in [9] and in assay [10] was more than 30 µM in each case.

As to `CC(=O)OC[C@H]1O[C@@H](n2ccc(=O)[nH]c2=O)[C@H](OC(C)=O)[C@@H]1OC(C)=O` [URIDINE TRIACETATE], the AC50 in assay [5], in assay [13], in assay [9] and in assay [10] was more than 30 µM throughout.

In the case of `CCOC(=O)N[C@@H]1CC[C@@H]2[C@@H](C1)C[C@H]1C(=O)O[C@H](C)[C@H]1[C@H]2/C=C/c1ccc(-c2cccc(F)c2)cn1` [VORAPAXAR], the AC50 in assay [5] is more than 30 µM; in [13], more than 10 µM; in assay [9], more than 10 µM; in assay [10] it was more than 30 µM.

Source of the values: ChEMBL document CHEMBL5291721, “A preclinical secondary pharmacology resource illuminates target-adverse drug reaction associations of marketed drugs” (Nat Commun, 2023).
